Measured values taken from US20070270428A1, “Use of Cyclooxygenase-2 Inhibitors for the Treatment of Depressive Disorders” (priority 2003, published 2007).
Like-named read-outs stand apart in the source and are kept apart here. Values belong to the compound of their own block, whether it stands above or below them.

Legend:
human COX-1 = molecular target: T1, human COX-1 (Homo sapiens, UniProt P23219); assay: Inhibition of human COX-1 in stably transfected COS cells (PGE2 release); assay type: cell-based; details: COS cells stably transfected with human COX-1
T1 construct: expressed in transfected cells; host or cells: COS cells (stably transfected)
Method: (§1) 24 Hours prior to experiment, COS cells were transferred from the 175 cm^2 flasks in which they were grown, onto 24-well cell culture plates using the following procedure. The incubation medium
(Dulbecco's modified eagles medium (DMEM) supplemented with heat-inactivated foetal calf serum (10% v/v), penicillin (100 lU/ml), streptomycin (100 μg/ml) and geneticin (600 μg/ml)) was removed from a flask of confluent cells (1 flask at confluency contains approximately 1×10^7 cells). 10 ml of phosphate buffered saline (PBS) was added to the flask to wash the cells. Having discarded the PBS, cells were then rinsed in 10 ml trypsin for 20 seconds, after which the trypsin was removed and the flask placed in an incubator (37°) for 1-2 minutes until cells became detached from the flask. The flask was then removed from the incubator and cells resuspended in 10 ml of fresh incubation medium. The contents of the flask was transferred to a 250 ml sterile container and the volume of incubation medium subsequently made up to 100 ml. […] The plates were then placed in an incubator (37° C., 95% air/5% CO2) overnight. If more than 1 flask of cells were required, the cells from the individual flasks were combined before being dispensed into the 24-well plates.
Following the overnight incubation, the incubation medium was completely removed from the 24-well cell culture plates and replaced with 250 μl fresh DMEM (37° C.). The test compounds were made up to 250× the required test concentration in DMSO and were added to the wells in a volume of 1 μl. Plates were then mixed gently by swirling and then placed in an incubator for 1 hour (37° C., 95% air/5% CO2). Following the incubation period, 10 μl of arachidonic acid (750 μM) was added to each well to give a final arachidonic acid concentration of 30 μM. Plates were then incubated for a further 15 minutes, after which the incubation medium was removed from each well of the plates and stored at −20° C., prior to determination of prostaglandin E2 (PGE2) levels using enzyme immunoassay. The inhibitory potency of the test compound was expressed as an IC50 value, which is defined as the concentration of the compound required to inhibit the PGE2 release from the cells by 50%. The selectivity ratio of inhibition of COX-1 versus COX-2 was calculated by comparing respective IC50 values.

microsomal h-COX2 = molecular target: T2, microsomal h-COX2 (Homo sapiens, UniProt P35354); assay: Microsomal assay, COX-2 (microsomal preparation from baculovirus infected SF9 cells); assay type: biochemical
T2 construct: made in house; host or cells: baculovirus infected SF9 cells (microsomal preparation)
T2 sequence (P35354 18-604): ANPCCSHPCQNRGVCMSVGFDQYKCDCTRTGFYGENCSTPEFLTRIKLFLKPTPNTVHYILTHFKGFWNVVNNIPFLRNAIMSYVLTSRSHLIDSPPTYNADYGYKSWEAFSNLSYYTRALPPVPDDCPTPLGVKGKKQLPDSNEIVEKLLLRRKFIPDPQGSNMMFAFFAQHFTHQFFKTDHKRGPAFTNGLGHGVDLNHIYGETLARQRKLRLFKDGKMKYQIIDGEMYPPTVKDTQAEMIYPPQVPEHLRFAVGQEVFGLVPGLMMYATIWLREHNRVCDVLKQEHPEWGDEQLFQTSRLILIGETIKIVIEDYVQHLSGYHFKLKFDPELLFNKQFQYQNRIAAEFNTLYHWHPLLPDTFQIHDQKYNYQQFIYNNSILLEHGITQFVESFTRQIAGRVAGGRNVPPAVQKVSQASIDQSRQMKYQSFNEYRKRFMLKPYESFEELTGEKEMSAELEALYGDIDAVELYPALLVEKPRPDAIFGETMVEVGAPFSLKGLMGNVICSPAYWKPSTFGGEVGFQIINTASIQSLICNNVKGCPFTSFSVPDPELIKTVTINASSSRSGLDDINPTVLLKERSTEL
Method: Inhibitory activity against microsomal h-COX2 was assessed against a microsomal preparation from baculovirus infected SF9 cells. An aliquot of microsomal preparation was thawed slowly on ice and a 1/40,000 dilution prepared from it into the assay buffer (sterile water, degassed with argon containing 100 mM HEPES (pH 7.4), 10 mM EDTA (pH7.4), 1 mM phenol, 1 mM reduced glutathione, 20 mg/ml gelatin and 0.001 mM Hematin). Once diluted the enzyme solution was then sonicated for 5 seconds (Branson sonicator, setting 4, 1 cm tip) to ensure a homogeneous suspension. […] Plates were then mixed and incubated at room temperature for 1 hour. Following the incubation period, 40 μl of 0.5 μM arachidonic acid was added to each well to give a final concentration of 0.1 μM. Plates were then mixed and incubated for exactly 10 minutes (room temperature) prior to addition of 25 μl 1M HCl (hydrochloric acid) to each well to stop the reaction. 25 μl of 1M NaOH (sodium hydroxide) was then added to each well to neutralise the solution prior to determination of PGE2 levels by enzyme immunoassay (EIA).

male Sprague-Dawley rats = assay: Chronic Inescapable Shock in Rats (escape test); assay type: in vivo, rat; details: stressed rats
Method: The Chronic Inescapable Shock in Rats model, developed from the learned Helplessness paradigm, was used to investigate the acquisition of shock-induced escape deficits in rats in the absence and presence of SSRI±COX-2 inhibitors. The test was performed over a period of seven days as an adaptation of the methodology used previously by Gambarana, C., […]. & De Montis, M. G. (1995). Experiments were carried out on male Sprague-Dawley rats (Charles River, Como, Italy). Animals were kept in a controlled environment with a constant temperature of 22° C. and a 12 hour light/12 hour inverted dark cycle, with free access to food and water. The procedures used in this study for all animals were in strict accordance with the European legislation on the use and care of laboratory animals (CEE N° 86/609) and experiments were performed under red light. The experimental procedure consists of a pre-test session (exposure to an unavoidable stress of minimum intensity and duration required to induce a reliable behavioural modification) followed 24 hours later by an escape test (for the assessment of the induced behavioural modification). […]

human COX-2 = molecular target: T3, human COX-2 (Homo sapiens, UniProt P35354); assay: Inhibition of human COX-2 in stably transfected COS cells (PGE2 release); assay type: cell-based; details: COS cells stably transfected with human COX-2
T3 construct: expressed in transfected cells; host or cells: COS cells (stably transfected)
T3 sequence (P35354 18-604): T2 sequence (P35354 18-604)
Method: as §1
(Dulbecco's modified eagles medium (DMEM) supplemented with heat-inactivated foetal calf serum (10% v/v), penicillin (100 lU/ml), streptomycin (100 μg/ml) and geneticin (600 μg/ml)) was removed from a flask of confluent cells (1 flask at confluency contains approximately 1×10^7 cells). 10 ml of phosphate buffered saline (PBS) was added to the flask to wash the cells. Having discarded the PBS, cells were then rinsed in 10 ml trypsin for 20 seconds, after which the trypsin was removed and the flask placed in an incubator (37°) for 1-2 minutes until cells became detached from the flask. The flask was then removed from the incubator and cells resuspended in 10 ml of fresh incubation medium. The contents of the flask was transferred to a 250 ml sterile container and the volume of incubation medium subsequently made up to 100 ml. […] If more than 1 flask of cells were required, the cells from the individual flasks were combined before being dispensed into the 24-well plates.
Following the overnight incubation, the incubation medium was completely removed from the 24-well cell culture plates and replaced with 250 μl fresh DMEM (37° C.). […]

[1] = microsomal assay, PGE2 by EIA, read-out: COX-2: IC50

T1 sequence (P23219 24-599): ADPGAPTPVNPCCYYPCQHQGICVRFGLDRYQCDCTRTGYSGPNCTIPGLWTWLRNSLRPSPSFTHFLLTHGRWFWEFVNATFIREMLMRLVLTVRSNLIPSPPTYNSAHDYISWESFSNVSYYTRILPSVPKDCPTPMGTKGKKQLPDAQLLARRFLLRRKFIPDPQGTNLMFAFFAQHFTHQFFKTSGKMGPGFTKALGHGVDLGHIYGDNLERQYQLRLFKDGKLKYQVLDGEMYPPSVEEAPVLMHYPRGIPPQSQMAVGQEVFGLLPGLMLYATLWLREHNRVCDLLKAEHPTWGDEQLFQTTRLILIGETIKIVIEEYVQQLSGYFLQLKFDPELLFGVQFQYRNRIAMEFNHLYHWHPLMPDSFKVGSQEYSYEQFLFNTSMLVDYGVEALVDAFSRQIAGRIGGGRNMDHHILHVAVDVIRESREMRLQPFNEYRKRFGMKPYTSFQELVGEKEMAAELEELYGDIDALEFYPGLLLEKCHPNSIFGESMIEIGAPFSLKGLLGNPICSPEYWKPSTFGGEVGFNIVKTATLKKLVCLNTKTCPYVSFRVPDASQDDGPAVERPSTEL

Compound: CS(=O)(=O)c1ccc(-c2cc(C(F)(F)F)cc(OCc3ccccn3)n2)cc1 [Example 3.2, 2-[4-(methylsulfonyl)phenyl]-6-[(2-pyridinylmethyl)oxy]-4-(trifluoromethyl)pyridine]
- IC50 (microsomal h-COX2; stated in text after the microsomal assay table, read-out: IC50 values for inhibition of COX-2): ≤ 0.5 µM

Compound: Fc1ccc([C@@H]2CCNC[C@H]2COc2ccc3c(c2)OCO3)cc1 (relative stereo) [PAROXETINE, trans-(−)-3-[(1,3-benzodioxol-5-yloxy)methyl]-4-(4-fluorophenyl)piperidine]
- MEAN Number of escapes (male Sprague-Dawley rats; 7 days of treatment p.o., escapes out of 30 consecutive trials on day 8): 3.8
- reversal of chronic escape deficit (male Sprague-Dawley rats; after 7 days of treatment, day 8): lack of reversal of chronic inescapable shock

Compound: CS(=O)(=O)c1ccc(-c2c(-c3ccc(F)cc3)nn3nc(OC(F)F)ccc23)cc1 [2.1(v), 6-Difluoromethoxy-2-(4-fluoro-phenyl)-3-(4-methanesulfonyl-phenyl)-pyrazolo[1,5-b]pyridazine]
- IC50 (human COX-1): > 100 µM

Compound: CS(=O)(=O)c1ccc(-c2c(-c3cccc(F)c3)nn3nc(OC(F)F)ccc23)cc1 [2.7(viii), 6-Difluoromethoxy-2-(3-fluoro-phenyl)-3-(4-methanesulfonyl-phenyl)-pyrazolo[1,5-b]pyridazine]
- IC50 (human COX-1): > 55.2 µM

Compound: CCOc1ccc(-c2nn3ncccc3c2-c2ccc(S(C)(=O)=O)cc2)cc1 [2.3(ii), 2-(4-Ethoxy-phenyl)-3-(4-methanesulfonyl-phenyl)-pyrazolol[5-b]pyridazine]
- IC50 (human COX-1): > 100 µM

Compound: COc1ccc(-c2nn3ncccc3c2-c2ccc(S(C)(=O)=O)cc2)cc1 [2.2(ii), 3-(4-Methanesulfonyl-phenyl)-2-(4-methoxy-phenyl)-pyrazolo[1,5-b]pyridazine]
- IC50 (human COX-2): < 0.01 µM

Continued, values first:

- IC50 (human COX-1): > 100 µM
Compound: CS(=O)(=O)c1ccc(-c2c(-c3ccc(OC(F)F)cc3)nn3ncccc23)cc1 [Compound 2.5, 2-(4-Difluoromethoxy-phenyl)-3-(4-methanesulfonyl-phenyl)-pyrazolo[1,5-b]pyridazine]

- IC50 (microsomal h-COX2; [1]): < 0.01 µM
Compound: Cc1ccc(Oc2nc(-c3ccc(S(C)(=O)=O)cc3)cc(C(F)(F)F)n2)cc1 [Example 1.6]

- IC50 (microsomal h-COX2; [1]): < 0.01 µM
Compound: CS(=O)(=O)c1ccc(-c2cc(C(F)(F)F)nc(Oc3cncc(Cl)c3)n2)cc1 [Example 1.7]
